Measurements: US10265327B2, “V1A antagonists to treat phase shift sleep disorders” (Hoffmann-La Roche Inc., priority 2013, dated 2019)

Test system: C57BL/6J mice
Assay: Behavioural circadian responses (phase shift, period, alpha, locomotor activity) after single oral administration, release into constant darkness
Format: in vivo, mouse
Method: In all studies described below, male young-adult C57BL/6J mice (4 weeks old at the beginning of experiments) were used. Animals were exposed to a light-dark cycle (LD) 12:12 (lights on from 8 h to 20 h geographical time; light intensity at 200 lux; during dark period dim red light of 5 lux) in individual cages with food and water ad libitum and temperature (22±1° C.) and humidity (55%±5%) controlled. LD cycle was represented as zeitgeber times (ZT) where ZT0 represents the lights on and ZT12 lights off. When animals were exposed to constant darkness conditions (DD), circadian times (CT) were used as time point references, where CT12 corresponds to activity onset.
It was evaluated whether there is a phase window of sensitivity to the V1a receptor antagonist trans-8-chloro-5-methyl-1-(4-pyridin-2-yloxycyclohexyl)-4,6-dihydro-[1,2,4]triazolo[4,3-a][1,4]benzodiazepine (example 1). A group of animals was treated at 2 temporal points (one during the day and one at night). Animals were exposed to LD cycle conditions (at least for 10 days) to obtain a baseline of the rhythm of locomotor activity. 4 groups were selected: (group 1) Sham manipulations, animals into which the cannula was introduced in the oral cavity without any solution delivery; (group 2) vehicle, and […] administration of the V1a receptor antagonist trans-8-chloro-5-methyl-1-(4-pyridin-2-yloxycyclohexyl)-4,6-dihydro-[1,2,4]triazolo[4,3-a][1,4]benzodiazepine (doses of 10 mg/kg and 30 mg/kg). Administrations were performed (orally) at ZT/CT12 (lights off/activity onset; sham, n=5; vehicle n=5; 10 mg/kg n=5; and 30 mg/kg n=5). After the first manipulation at ZT/CT12, animals were immediately exposed to DD conditions and remained at least for 10 days more for behavioural analysis, and then re-entrained to a 12-12 LD cycle, for a minimum of 10 days, to be re-exposed to the second experimental manipulation at ZT/CT0 (lights on/activity offset; sham, n=3; vehicle n=3; 10 mg/kg n=5; and 30 mg/kg n=5).
A new group of animals was treated at another 2 temporal points different from the previous experiment; ZT/CT6 (6 h after lights on/mid rest period; sham, n=3; vehicle n=4; and 30 mg/kg n=5) and ZT/CT18 (6 h after lights off/mid activity period; sham, n=3; vehicle n=4; and 30 mg/kg n=5). For this experiment (time points ZT/CT6 and ZT/CT18), trans-8-chloro-5-methyl-1-(4-pyridin-2-yloxycyclohexyl)-4,6-dihydro-[1,2,4]triazolo[4,3-a][1,4]benzodiazepine was administrated only at the 30 mg/kg dose. Thus, 3 groups were selected: (Group 1) Sham manipulations, (Group 2) vehicle administrations and (Group 3) trans-8-chloro-5-methyl-1-(4-pyridin-2-yloxycyclohexyl)-4,6-dihydro-[1,2,4]triazolo[4,3-a][1,4]benzodiazepine (30 mg/kg). After manipulations, animals were immediately exposed to DD conditions and remained at least for 10 days more for behavioural analysis, and then re-entrained to a 12-12 LD cycle for a minimum of 10 days.
The locomotor activity rhythms were measured using infra-red detectors on the top of the cages and/or running wheels.
Phase shifts: Phase shifts were measured by fitting two regression lines to the onsets of locomotor activity for 10 days before and 10 days after the manipulation (ClockLab; Actimetrics, Evanston, Ill., USA). A computer algorithm was used to identify the onset of the main period of daily locomotor activity (ClockLab). The data collected on the day following the manipulation (sham, vehicle or drug administration) was excluded from the line fits to ensure that the circadian phase was in steady state. Phase shift was defined as the difference (in hours) between the pre-stimulus line and the post-stimulus line. The magnitude of the phase shifts was fitted by linear regression to the onsets, considering 10 cycles before (LD) and 10 cycles after compound administration when animals were released in constant darkness (DD; Aschoff Type II procedure to evaluate phase shifts; Mrosovsky, 1996b). […]

CN1Cc2cc(Cl)ccc2-n2c(nnc2[C@H]2CC[C@H](Oc3ccccn3)CC2)C1 [Example 1, trans-8-chloro-5-methyl-1-(4-pyridin-2-yloxycyclohexyl)-4,6-dihydro-[1,2,4]triazolo[4,3-a][1,4]benzodiazepine] was tested, and the “locomotor activity change after administration” value (10 mg/kg or 30 mg/kg oral, ZT/CT12 and ZT/CT0) was “No significant locomotor activity change”, the “endogenous period of locomotor activity” value (10 mg/kg or 30 mg/kg oral, ZT/CT12 and ZT/CT0, constant darkness) was “no changes” and the “endogenous period of locomotion” value (30 mg/kg oral, ZT/CT18 and ZT/CT6) was “not significantly different between groups”. The “alpha (duration of active period), difference between groups” value (30 mg/kg oral, ZT/CT18 or ZT/CT6) was “no differences between groups were observed”, the “behavioural phase shifts (circadian phase)” value (single administration 30 mg/kg oral, at ZT/CT18 and ZT/CT6) was “no significant effect on the circadian phase” and the “behavioural phase-shifts (circadian phase)” value (single oral administration, 10 mg/kg or 30 mg/kg, at ZT/CT12 and ZT/CT0) was “no effect on the circadian phase”. The “alpha increase (pre vs. post)” value (treated at ZT/CT0, 10 and 30 mg/kg oral, effect vs groups not statistically significant) was roughly 2 h and the “alpha (duration of active period), difference between groups” value (treated at ZT/CT12, 10 and 30 mg/kg oral) was “no differences between groups were observed”.
